Data set [1] has as its system FTH1. The data set can be described thus: FTH1 mRNA levels in mouse bone marrow-derived macrophages (qPCR). Format: cell-based. The following applies: murine macrophages; for FTH1 Levels, Fe-Normal / FTH1 Levels, DFO (−Fe) / FTH1 Levels, Fe-NTA (+Fe): SPH 160 μM or oligopeptide 10 μM; for FTH1 Levels, Fe-Normal: normal iron, normalized to Hprt1, relative to control samples; for FTH1 Levels, DFO (−Fe): with DFO 100 μM 16 h; for FTH1 Levels, DFO (−Fe) / FTH1 Levels, Fe-NTA (+Fe): relative to control samples; for FTH1 Levels, Fe-NTA (+Fe): with Fe-NTA 8 h; for FTH1 mRNA expression: normal and iron-depleted conditions. The method, then:
Cell Cultures. MBMMs (C57BL/6 genetic background) were obtained from CellBiologics.net and prepared under the conditions recommended by the supplier. Isolated MBMMs were seeded onto 10 cm diameter Petri dishes and grown in RPMI-GlutaMAX™ medium (Invitrogen) supplemented with 10% heat-inactivated FCS (Gibco), 10% L-cell-conditioned medium (source of colony-stimulating factor 1), 2 mM L-glutamine, 50 U/mL penicillin, and […] streptomycin. At 4 days after seeding, the adherent MBMMs were rinsed twice with Hanks balance salt solution (HBSS), and the medium was renewed for 7 days, at which point the MBMMs had completely differentiated into macrophages that were ready for downstream experimental applications.
Cell Treatments. SPH (average molecular weight of about 1100 Daltons) and oligopeptides were dissolved in sterile water to obtain […] stock solutions. The SPH and oligopeptides were further diluted in cell culture media to reach final concentrations of 160 μM SPH and 10 μM oligopeptide per Petri dish.
Murine macrophages were incubated with SPH or an oligopeptide in the presence or absence of an iron-nitrilotriacetate solution (Fe-NTA; FeCl3 (100 μM)-NTA (400 μM)) for 8 h at 37° C. to increase cellular iron concentration. Murine macrophages were also incubated with SPH or an oligopeptide in the presence or absence of desferrioxamine mesylate (DFO; 100 μM) for 16 h at 37° C. to decrease cellular iron concentration. Commercial collagen peptide (Vital Protein) at a 10 μM concentration and sterile water were used as negative controls.
Measurement of Gene Expression. Total RNA was extracted from macrophages using the Qiagen miRNeasy Mini Kit for purification of total RNA from animal and human cells and tissues according to the manufacturer's instructions. About 2 μg of total RNA was transcribed into cDNA, after RT2 RNA QC PCR Array was run to confirm the quality of the RNA samples followed by gene expression analysis using RT2 Profiler PCR array.
The primers used for amplification of cDNA were: […]
All reactions were performed in a total reaction volume of 20 μl with iQ™ SYBR® Green Supermix (Bio-Rad) and carried out in the iQ™5 instrument (Bio-Rad). Baseline thresholds were calculated by Bio-Rad iQ5 program, and the threshold cycles (Ct) were used, wherein Ct values for the Fth1 gene were normalized to expression levels of Hprt1 (housekeeping) gene. Results are shown in Table 8-2 as n-fold difference relative to the control samples.
On the technique in general: Quantitative PCR measures a nucleic acid by following its amplification.

For data set [2], the system named is Immortalized human astrocytes (P10251-IM). The data set can be described thus: Protection of human astrocytes from hemin-induced injury (LDH release assay). In kind it is cell-based. The following applies: for % LDH Release (individual runs) / % LDH Release, Average: 24 hr pre-treatment: SPH 160 μM, oligopeptide 10 μM, collagen control 160 μM, then 30 μM hemin 6 hrs, scaled to 0.1% Triton X-100 lysis; for mortality of astrocytes after hemin: oligopeptide 10 μM pre-treatment, hemin-induced oxidative damage. Here is the method: Immortalized human astrocytes (P10251-IM) were obtained from Innoprot, Spain and prepared under conditions recommended by the supplier. At 90% confluency, the P10251-IM cells were rinsed with 8 ml of DPBS and 2 ml of the T/E Solution (prepared as per Innoprot procedure), then added into an […] and gently rocked so that the P10251-IM cells would be completely covered. The flask was subsequently incubated at 37° C. for 2 minutes. Then 5 ml of fetal bovine serum (FBS) and the T/E solution from the flask were added into a 50 ml conical centrifuge tube. The flask was incubated for an additional 2 minutes, and the P10251-IM cells dislodged from the surface by gentle tapping. The P10251-IM cells were then transferred to the 50 ml conical centrifuge tube with 5 ml of TNS solution. The tube was centrifuged at 1000 rpm for 5 minutes. Then the P10251-IM cells were resuspended in the culture medium, counted, and plated in a poly-L-lysine-coated culture plate at 1×10^4 cell density. Cells were tested after they were incubated for 21 days in vitro.
Confluent P10251-IM cell cultures were washed and then pre-treated with medium alone, or medium supplemented with SPH (160 μM) or an oligopeptide (10 μM) for 24 hr at 37° C. Commercial collagen peptide (Vital Protein) at 160 μM concentration and sterile water were used as negative controls. The P10251-IM cells were subsequently treated with 30 μM hemin in serum-free medium consisting of MEM with 10 mM glucose (MEM10) for 6 hrs.
P10251-IM astrocyte cultures that were […] with 30 μM hemin sustained widespread cell injury. Cell viability was quantified using the lactate dehydrogenase (LDH) release assay as previously described (Chen and Regan, Curr Neurovasc Res, 2:189-196, 2005). Briefly, quantification of the protective effects of SPH and oligopeptides were assessed by determining the mean percentage LDH released, scaled to the complete lysis control culture which was treated with 0.1% Triton X-100 (considered to release 100% of culture LDH).

Structures are written as SMILES. Where “and” joins values, the source holds several entries; their conditions need not be identical. Equal values may be shown once. Peptide text beside a SMILES is read from it.

Regarding `CC(C)C[C@H](NC(=O)[C@H](CCC(=O)O)NC(=O)CNC(=O)[C@H](CO)NC(=O)[C@H](CCC(=O)O)NC(=O)[C@H](CCC(=O)O)NC(=O)[C@@H](N)CCCNC(=N)N)C(=O)O` [FT-008, REESGEL] (H-REESGEL-OH), in data set [1], the “FTH1 Levels, Fe-Normal” value came to 2.5 n-fold; the “FTH1 Levels, DFO (−Fe)” value is given as 3.4 n-fold; the “FTH1 Levels, Fe-NTA (+Fe)” value is 2.7 n-fold; the “FTH1 mRNA expression” value is “substantial increases”. Moreover, in data set [2], the “% LDH Release (individual runs)” value is 29% and 27% and 31%; the “% LDH Release, Average” value stood at 29%; the “mortality of astrocytes after hemin” value was 29%.

For `N=C(N)NCCC[C@H](NC(=O)[C@@H]1CCCN1)C(=O)N[C@@H](CCC(=O)O)C(=O)N[C@@H](CCC(=O)O)C(=O)N[C@@H](CO)C(=O)N[C@@H](CC(=O)O)C(=O)N[C@@H](CCCCN)C(=O)N1CCC[C@H]1C(=O)O` [FT-007, PREESDKP] (H-PREESDKP-OH), in data set [1], the “FTH1 Levels, Fe-Normal” value was found to be 1.9 n-fold; the “FTH1 Levels, DFO (−Fe)” value is 3.1 n-fold; the “FTH1 Levels, Fe-NTA (+Fe)” value is 2.9 n-fold; the “FTH1 mRNA expression” value is “substantial increases”. Besides, in data set [2], the “% LDH Release (individual runs)” value was 35% and 38% and 34%; the “% LDH Release, Average” value was 36%; the “mortality of astrocytes after hemin” value stood at 36%.

On to `CSCC[C@H](NC(=O)[C@@H]1CCCN1C(=O)[C@H](CCCCN)NC(=O)[C@H](CC(=O)O)NC(=O)[C@H](CO)NC(=O)[C@H](CCC(=O)O)NC(=O)[C@H](CCC(=O)O)NC(=O)[C@@H](N)CCCNC(=N)N)C(=O)N[C@@H](Cc1ccc(O)cc1)C(=O)O` [FT-006, REESDKPMY] (H-REESDKPMY-OH), for which, in data set [1], the “FTH1 Levels, Fe-Normal” value is reported as 2.7 n-fold; the “FTH1 Levels, DFO (−Fe)” value turned out to be 3.3 n-fold; the “FTH1 Levels, Fe-NTA (+Fe)” value worked out at 2.8 n-fold; the “FTH1 mRNA expression” value was “substantial increases”. Further, in data set [2], the “% LDH Release (individual runs)” value is 40% and 39% and 42%; the “% LDH Release, Average” value was found to be 40%; the “mortality of astrocytes after hemin” value came out at 40%.

Source of the values: US20250101061A1, “UPREGULATION OF FERRITIN HEAVY CHAIN 1 EXPRESSION” (HBC Immunology Inc., priority 2022, published 2025).
